Experimental data published in patent publication US10723695B2, “Microbiocidal phenylamidine derivatives” (SYNGENTA PARTICIPATIONS AG, priority 2015, dated 2020).

Tests used:
[1] = tested on: Puccinia recondita f. sp. tritici; assay: Puccinia recondita f. sp. tritici / wheat / leaf disc preventative (brown rust); type: in vivo; details: foliar, wheat leaf segments cv. Kanzler, compared to untreated control leaf disks, read-out: disease control
Outline: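 Wheat leaf segments (cv. Kanzler) on agar were sprayed preventatively with formulated compound diluted in water and inoculated with spores 1 day later. They were incubated at 19 °C, 75% rh, 12 h light/12 h dark. Percent disease control versus untreated was scored 7-9 days after application.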

[2] = tested on: Blumeria graminis f. sp. tritici (Erysiphe graminis f. sp. tritici); assay: Blumeria graminis f. sp. tritici / wheat / leaf disc preventative (powdery mildew on wheat); type: in vivo; details: foliar, wheat leaf segments cv. Kanzler, compared to untreated control leaf disks, read-out: disease control
Description: Blumeria graminis f. sp. tritici (Erysiphe graminis f. sp. tritici)/Wheat/Leaf Disc Preventative (Powdery Mildew on Wheat) Wheat leaf segments cv. Kanzler were placed on agar in a multiwell plate (24-well format) and sprayed with the formulated test compound diluted in water. The leaf disks were inoculated by shaking powdery mildew infected plants above the test plates 1 day after application.

[3] = tested on: Puccinia recondita f. sp. tritici; assay: Puccinia recondita f. sp. tritici / wheat / leaf disc curative (brown rust); type: in vivo; details: foliar, 24 h, wheat leaf segments cv. Kanzler, curative (applied 1 day after inoculation), compared to untreated control leaf disks, read-out: disease control
Experimental: Puccinia recondita f. sp. tritici/Wheat/Leaf Disc Curative (Brown Rust) Wheat leaf segments cv. Kanzler are placed on agar in multiwell plates (24-well format). The leaf segments are inoculated with a spore suspension of the fungus. Plates were stored in darkness at 19° C. and 75% rh. The formulated test compound diluted in water was applied 1 day after inoculation.

Phakopsora pachyrhizi = Phakopsora pachyrhizi / soybean / leaf disk preventative (soybean rust); type: in vivo; details: foliar, soybean leaf disks, compared to untreated control leaf disks, read-out: disease control
Outline: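 Four-week-old soybean plants sprayed with formulated compound in water; leaf disks cut 1 day later, inoculated on the lower surface with spore suspension. Held 24-36 h dark at 20° C, 75% rh, then 20° C with 12 h light/day; % diseased disk area scored 12-14 days after application.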

Structure (SMILES)	melting point	pest or weed control at 200 ppm [1]	pest or weed control at 200 ppm [2]	pest or weed control at 200 ppm [3]	pest or weed control at 200 ppm (Phakopsora pachyrhizi)
CCN(C)/C=N/c1cc(OC)c(C(O)(C(F)(F)F)C(F)(F)F)cc1C [Compound E1.001]	126 to 128 °C	≥ 80%	≥ 80%	≥ 80%	≥ 80%
CCOc1cc(/N=C/N(C)CC)c(C)cc1C(O)(c1ccccc1)C(F)(F)F (stereo not shown) [Compound E1.002]	148 to 151 °C	≥ 80%	–	≥ 80%	≥ 80%
CCN(C)/C=N/c1cc(OC)c(C(O)(c2ccc(F)cc2)C(F)(F)F)cc1C (stereo not shown) [Compound E1.004]	102 to 104 °C	≥ 80%	≥ 80%	≥ 80%	≥ 80%
CCN(C)/C=N/c1cc(OC)c(C(O)(c2ccccc2)C(F)(F)F)cc1C (stereo not shown) [Compound E1.006]	160 to 162 °C	≥ 80%	≥ 80%	≥ 80%	≥ 80%
CCN(C)/C=N/c1cc(OC)c(C(O)(c2cccc(C(F)(F)F)c2)C(F)(F)F)cc1C (stereo not shown) [Compound E1.010]	121 to 123 °C	≥ 80%	≥ 80%	≥ 80%	≥ 80%
CCN(C)/C=N/c1cc(OC)c(C(O)(c2ccc(OC)cc2)C(F)(F)F)cc1C (stereo not shown) [Compound E1.011]	67 to 71 °C	≥ 80%	≥ 80%	≥ 80%	≥ 80%
CCN(C)/C=N/c1cc(OC)c(C(O)(c2cccc(C#N)c2)C(F)(F)F)cc1C (stereo not shown) [Compound E1.022]	38 to 40 °C	≥ 80%	≥ 80%	≥ 80%	≥ 80%
COc1cc(/N=C/N(C)C(C)C)c(C)cc1[C@@](O)(c1ccccc1)C(F)(F)F [Compound E1.026]	110.5 to 111.7 °C	≥ 80%	≥ 80%	≥ 80%	≥ 80%
COc1cc(/N=C/N(C)C(C)C)c(C)cc1[C@](O)(c1ccccc1)C(F)(F)F [Compound E1.027]	110.5 to 111.7 °C	≥ 80%	≥ 80%	≥ 80%	≥ 80%
CCN(C)/C=N/c1cc(OC)c(C(O)(c2ccccc2Cl)C(F)(F)F)cc1C (stereo not shown) [Compound E1.033]	97 to 100 °C	≥ 80%	≥ 80%	≥ 80%	≥ 80%
CCN(C)/C=N/c1cc(OC)c(C(O)(c2ccccc2Br)C(F)(F)F)cc1C (stereo not shown) [Compound E1.035]	114 to 116 °C	≥ 80%	≥ 80%	≥ 80%	≥ 80%
CCN(C)/C=N/c1cc(OC)c(C(O)(C2CC2)C(F)(F)F)cc1C (stereo not shown) [Compound E1.052]	64 to 72 °C	≥ 80%	≥ 80%	≥ 80%	≥ 80%
CCC(O)(c1cc(C)c(/N=C/N(C)C(C)C)cc1OC)C(F)(F)F (stereo not shown) [Compound E1.063]	73 to 76 °C	≥ 80%	≥ 80%	≥ 80%	≥ 80%
COc1cc(/N=C/N(C)C(C)C)c(C)cc1C(O)(C1CC1)C(F)(F)F (stereo not shown) [Compound E1.064]	90 to 93 °C	≥ 80%	≥ 80%	≥ 80%	≥ 80%
COc1cc(/N=C/N(C)C(C)C)c(C)cc1C(O)(C(C)C)C(F)(F)F (stereo not shown) [Compound E1.067]	78 to 79 °C	≥ 80%	≥ 80%	≥ 80%	≥ 80%
C=C(C)C(O)(c1cc(C)c(/N=C/N(C)C(C)C)cc1OC)C(F)(F)F (stereo not shown) [Compound E1.081]	110 to 113 °C	≥ 80%	≥ 80%	≥ 80%	≥ 80%
C=C(C)CC(O)(c1cc(C)c(/N=C/N(C)C(C)C)cc1OC)C(F)(F)F (stereo not shown) [Compound E1.082]	90 to 95 °C	≥ 80%	≥ 80%	≥ 80%	≥ 80%
C=CCC(O)(c1cc(C)c(/N=C/N(C)C(C)C)cc1OC)C(F)(F)F (stereo not shown) [Compound E1.084]	45 to 50 °C	≥ 80%	≥ 80%	≥ 80%	≥ 80%
CCN(C)/C=N/c1cc(OC)c(C(O)(c2ccccc2)C(C)C)cc1C (stereo not shown) [Compound E1.124]	82 to 84 °C	≥ 80%	–	≥ 80%	≥ 80%
CCN(C)/C=N/c1cc(OC)c(C(O)(c2ccccc2)C(C)(C)C)cc1C (stereo not shown) [Compound E1.125]	90 to 92 °C	≥ 80%	–	≥ 80%	≥ 80%

Now from value to compound, other results behind:

melting point	Structure (SMILES)	pest or weed control at 200 ppm [1]	pest or weed control at 200 ppm [2]	pest or weed control at 200 ppm [3]	pest or weed control at 200 ppm (Phakopsora pachyrhizi)
125 to 127 °C	CCN(C)/C=N/c1cc(OC)c(C(O)(c2cccc(C)c2)C(F)(F)F)cc1C (stereo not shown) [Compound E1.016]	≥ 80%	≥ 80%	≥ 80%	≥ 80%
119 to 121 °C	CCN(C)/C=N/c1cc(OC)c(C(O)(c2ccc(Cl)cc2Cl)C(F)(F)F)cc1C (stereo not shown) [Compound E1.017]	≥ 80%	≥ 80%	≥ 80%	≥ 80%
113 to 114 °C	CCN(C)/C=N/c1cc(OC)c(C(O)(c2ccc(F)cc2F)C(F)(F)F)cc1C (stereo not shown) [Compound E1.018]	≥ 80%	≥ 80%	≥ 80%	≥ 80%
112 to 114 °C	CCN(C)/C=N/c1cc(OC)c(C(O)(c2ccc(C)cc2)C(F)(F)F)cc1C (stereo not shown) [Compound E1.020]	≥ 80%	≥ 80%	≥ 80%	≥ 80%
98 to 100 °C	CCN(C)/C=N/c1cc(OC)c(C(O)(c2cccc(Br)c2)C(F)(F)F)cc1C (stereo not shown) [Compound E1.023]	≥ 80%	≥ 80%	≥ 80%	≥ 80%
115 to 117 °C	CCN(C)/C=N/c1cc(OC)c(C(O)(c2ccccc2C)C(F)(F)F)cc1C (stereo not shown) [Compound E1.024]	≥ 80%	≥ 80%	≥ 80%	≥ 80%
130 to 132 °C	CCN(C)/C=N/c1cc(OC)c(C(O)(c2cccc(F)c2)C(F)(F)F)cc1C (stereo not shown) [Compound E1.029]	≥ 80%	≥ 80%	≥ 80%	≥ 80%
137 to 140 °C	CCN(C)/C=N/c1cc(OC)c(C(O)(c2cc(F)ccc2F)C(F)(F)F)cc1C (stereo not shown) [Compound E1.031]	≥ 80%	≥ 80%	≥ 80%	≥ 80%
96 to 98 °C	CCN(C)/C=N/c1cc(OC)c(C(O)(c2ccccc2F)C(F)(F)F)cc1C (stereo not shown) [Compound E1.034]	≥ 80%	≥ 80%	≥ 80%	≥ 80%
123 to 127 °C	C=CCC(O)(c1cc(C)c(/N=C/N(C)CC)cc1OC)C(F)(F)F (stereo not shown) [Compound E1.071]	≥ 80%	≥ 80%	≥ 80%	≥ 80%
82 to 85 °C	CCN(C)/C=N/c1cc(OC)c(C(O)(Cc2cc(C)ncn2)C(F)(F)F)cc1C (stereo not shown) [Compound E1.099]	≥ 80%	≥ 80%	≥ 80%	≥ 80%
92 to 95 °C	CCN(C)/C=N/c1cc(OC)c(C(O)(Cc2cccc(OC)n2)C(F)(F)F)cc1C (stereo not shown) [Compound E1.100]	≥ 80%	≥ 80%	≥ 80%	≥ 80%
